Source: PMC11284088, “Synthesis and biochemical characterization of naphthoquinone derivatives targeting bacterial histidine kinases” (The Journal of Antibiotics, 2024)
Entries after “also recorded” stand apart in the source; their conditions may differ. Read-outs that look alike come from different tables or passages of the source.

Key:
[1] = biological target: T1, WalK (207-611, B. subtilis) (Bacillus subtilis, UniProt Q45614); assay: Affinity selection/mass spectrometry, competition with waldiomycin; assay type: binding; set-up: key to AS/MS: AS/MS + competitive inhibition of the binding of waldiomycin to WalK; − increased binding of waldiomycin to WalK
T1 construct: His6 (N); made in house; host or cells: E. coli BL21(DE3)
T1 sequence (Q45614 207-611): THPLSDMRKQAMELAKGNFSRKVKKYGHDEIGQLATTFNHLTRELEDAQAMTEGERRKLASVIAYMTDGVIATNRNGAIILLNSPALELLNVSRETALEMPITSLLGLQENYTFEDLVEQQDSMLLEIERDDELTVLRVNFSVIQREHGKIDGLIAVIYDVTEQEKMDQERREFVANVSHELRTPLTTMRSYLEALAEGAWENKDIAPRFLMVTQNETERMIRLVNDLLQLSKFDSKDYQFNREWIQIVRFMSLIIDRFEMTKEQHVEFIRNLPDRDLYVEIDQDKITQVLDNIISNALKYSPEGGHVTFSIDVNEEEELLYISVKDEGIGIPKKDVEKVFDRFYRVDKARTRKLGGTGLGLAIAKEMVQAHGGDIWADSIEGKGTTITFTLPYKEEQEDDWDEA
Method: The affinity selection/mass spectrometry (AS/MS) is a method which can detect the binding of small compounds to proteins. This experiment was carried out following a previously established protocol (Fig. 5), with the exception of using Millipore 96-well filter plates (MSBVN1210) instead of MAHAN4510. In the experiment, 1 µM of WalK (207-611, B. subtilis, refer to Table S2) was combined and incubated with 5 µM of waldiomycin and competitor compounds in a reaction buffer. The buffer composition was as follows: 25 mM Tris-HCl (pH 8.0), 50 mM KCl, 50 mM NH4Cl, 5 mM MgCl2, 1 mM DTT, and 0.1% CHAPS. Following the incubation, the mixture was subjected to size-exclusion chromatography via centrifugation to eliminate free compounds. The protein that was eluted was then denatured by adding an equal volume of methanol/0.1% formic acid. The compounds that were subsequently released from the protein were detected using an LC/MS system. The concentrations of waldiomycin were calculated from the value of peak areas using calibration curve that covered the range of 1 nM to 1 µM (R^2 = 0.9991). The concentration of waldiomycin in the eluate of WalK and waldiomycin without competitor was 10.1 nM, and percentages to this value were calculated for other samples.

iseA (formerly yoeB) = assay: RT-qPCR of iseA expression in B. subtilis cells; assay type: cell-based, B. subtilis 168; set-up: key to RT-qPCR: RT-qPCR + iseA gene expression was induced in B. subtilis 168; − no effect; conditions: for RT-qPCR: summary class, iseA gene expression in B. subtilis 168
Method: In brief, the cells were aerated and grown to an optical density at 660 nm of 0.3–0.4 at 37 °C. After the addition of DMSO or naphthoquinone derivatives, the cultures were further incubated for 5 min, cooled on ice for 1 min, and then harvested by centrifugation (2300 × g, 10 min, 4 °C). The cells were resuspended in 800 µl of RNA Lysis Buffer (SV Total RNA Isolation System, Z3100, Promega), transferred to a screw-capped tube containing 400 mg of glass beads (GB-01, TOMY), and disrupted using MicroSmash (MS-100, TOMY Medico) at 3000 rpm, 60 s ON/OFF for 6 cycles. RNA was then purified from 175 µl of the supernatant using the SV Total RNA Isolation System, followed by DNase I treatment (Turbo DNA-free^TM Kit, AM1907, Invitrogen) to remove any residual genomic DNA contamination. […] The expression levels of the genes were normalized using the 16S rRNA gene as an internal standard. Each assay was performed at least three times. Statistical analyses were conducted using Tukey’s multiple comparison test (GraphPad Prism 7).

WalK = biological target: T2, WalK (Bacillus subtilis, UniProt Q45614); assay: Inhibition of WalK autophosphorylation; assay type: biochemical; set-up: key to WalK: WalK + inhibitory effect against WalK; conditions: for IC50: against WalK from B. subtilis, autophosphorylation, N.I. = no inhibition; for inhibitory activity against WalK: in words; for WalK: summary class
T2 construct: His6 (N); made in house; host or cells: E. coli BL21(DE3)
T2 sequence (Q45614 207-611): as above
Method: Autophosphorylation of WalK was conducted at 0.5 or 1 µM in a reaction mixture comprising 50 mM Tris-HCl (pH 8.5), 100 mM KCl, 5 mM MgCl2, 100 mM NH4Cl, 5% DMSO, and 40 µM ATP. The total reaction volume was 40 µl, and the incubation lasted for 30 min at 25 °C. To terminate the reaction, 40 µl of 2 × SDS-PAGE sample buffer was added, followed by a 10-min incubation at 37 °C. Subsequently, SDS-PAGE (10% acrylamide) was performed, and the samples were subjected to Western blotting using a PVDF membrane (Bio-Rad 1620177). The primary antibody used was anti-N3-phosphohistidine antibody (clone SC56-2) (EDM Millipore Corp), and the secondary antibody was goat anti-rabbit IgG-HRP (Abcam). A 2% bovine serum albumin (Sigma-Aldrich) solution served as the blocking reagent. Signals originating from phosphorylated HKs were detected using the HRP substrate (Immobilon Western Chemiluminescent HRP substrate, Millipore) and the Multi Imager II Multi Box (Bio Tools). Signal intensities were quantified with Image Analysis Software CS Analyzer 4 (ATTO). IC50 values (50% inhibitory concentrations) were determined using Prism 7 software (GraphPad).
In the assessment of naphthoquinone derivatives, the initial screening for inhibitory activity against WalK autophosphorylation was conducted at 50 or 100 µg ml^−1. Compounds displaying inhibitory activity were further examined to ascertain their IC50 values against WalK. For the chosen compounds, inhibition against EvgS, EnvZ, PhoQ, and CpxA HKs was also assessed. These reactions involved the use of 1 µM HK, 40 µM ATP, and a 30 min incubation at 25 °C.

B. subtilis 168 strain = assay: MIC, standard microtiter broth dilution; assay type: cell-based, Bacillus subtilis; set-up: key to MIC: MIC + antibacterial activity against Bacillus subtilis 168; conditions: for antibacterial (antimicrobial) activity against B. subtilis: in words
Method: The minimum inhibitory concentrations (MICs) were determined using the standard microtiter broth dilution method, as recommended by the guidelines of the Clinical Laboratory Standards Institute.

[2] = B. subtilis 168 strain grown in LB broth at 37 °C for 18 h
[3] = Bacillus subtilis, B. subtilis 168 strain grown in LB broth at 37 °C for 18 h, read-out: MIC

SMILES	IC50 (WalK; read-out: IC50) [µM]	inhibitory activity against WalK (WalK)	MIC (B. subtilis 168 strain; [2]) [µg/mL]	antibacterial (antimicrobial) activity against B. subtilis (B. subtilis 168 strain)	IC50 (WalK)	also measured
O=C1C(Cl)=C(N2CCNCC2)C(=O)c2c(O)ccc(O)c21 [2a, 2-chloro-5,8-dihydroxy-3-(piperazin-1-yl)naphthalene-1,4-dione]	32.4	weaker				effect on the signal of waldiomycin ([1]; compound 30 and 100 µM, in words): reduced the signal of waldiomycin in a dose-dependent manner; signal of waldiomycin compared to only waldiomycin with WalK ([1]; compound at 100 µM, waldiomycin 5 µM, WalK 1 µM): about 10%; binding to WalK competitive with that of waldiomycin ([1]; in words): competitive; also recorded: competitively interacted with waldiomycin; RT-qPCR (iseA (formerly yoeB)): +; WalK (WalK): +
O=C1C(N2CCNCC2)=CC(=O)c2c(O)cccc21 [2b, 5-hydroxy-2-(piperazin-1-yl)naphthalene-1,4-dione]	48.4		8	equal to waldiomycin or even stronger		increase of MS signal of the collected waldiomycin compared to only waldiomycin ([1]; compound 30 or 100 µM, waldiomycin 5 µM, WalK 1 µM): about twofold; binding to WalK competitive with that of waldiomycin ([1]; in words): not competitive; also recorded: enhanced the binding of waldiomycin to WalK; AS/MS ([1]; summary class, effect on binding of waldiomycin to WalK): −; expression of iseA (iseA (formerly yoeB); exponentially growing cells, subMIC or MIC levels, 5 min, relative to DMSO control): did not change; RT-qPCR (iseA (formerly yoeB)): −; MIC (B. subtilis 168 strain; summary class, Bacillus subtilis 168): +; WalK (WalK): +
O=C1C(Cl)=C(N2CCNCC2)C(=O)c2ccccc21 [2c, 2-chloro-3-(piperazin-1-yl)naphthalene-1,4-dione]		did not show any inhibitory activity; also recorded: inactive	8	equal to waldiomycin or even stronger	N.I.	
O=C1C(N2CCNCC2)=C(Cl)C(=O)c2c1cccc2[N+](=O)[O-] [2d, 3-chloro-5-nitro-2-(piperazin-1-yl)naphthalene-1,4-dione]	305		8	equal to waldiomycin or even stronger		
O=C1C(Cl)=C(NCCO)C(=O)c2c(O)ccc(O)c21 [2e, 2-chloro-5,8-dihydroxy-3-((2-hydroxyethyl)amino)naphthalene-1,4-dione]		did not show any inhibitory activity; also recorded: inactive	2	equal to waldiomycin or even stronger	N.I.	
O=C1C(Cl)=C(NCCc2ccc(O)c(O)c2)C(=O)c2c(O)ccc(O)c21 [2f, 2-chloro-3-((3,4-dihydroxyphenethyl)amino)-5,8-dihydroxynaphthalene-1,4-dione]		did not show any inhibitory activity; also recorded: inactive	8	equal to waldiomycin or even stronger	N.I.	
O=C1C(Cl)=C(Nc2cccc(O)c2)C(=O)c2c(O)ccc(O)c21 [2g, 2-chloro-5,8-dihydroxy-3-((3-hydroxyphenyl)amino)naphthalene-1,4-dione]	31.7		1	equal to waldiomycin or even stronger		
O=C1C(Cl)=C(Nc2ccc(Cl)c(O)c2)C(=O)c2c(O)ccc(O)c21 [2i, 2-chloro-3-((4-chloro-3-hydroxyphenyl)amino)-5,8-dihydroxynaphthalene-1,4-dione]		did not show any inhibitory activity; also recorded: inactive		equal to waldiomycin or even stronger		MIC (B. subtilis 168 strain; B. subtilis 168 strain grown in LB broth at 37 °C for 18 h, listed as C00017): 4 µg/mL; IC50 (WalK; listed as C00017): N.I.
O=C1C(Nc2ccc(Cl)c(O)c2)=CC(=O)c2c(O)cccc21 [2j, 2-((4-chloro-3-hydroxyphenyl)amino)-5-hydroxynaphthalene-1,4-dione]	75.1			equal to waldiomycin or even stronger		MIC (B. subtilis 168 strain; [3]): 4 µg/mL
COc1ccc(NC2=C(Cl)C(=O)c3c(O)ccc(O)c3C2=O)cc1 [2k, 2-chloro-5,8-dihydroxy-3-((4-methoxyphenyl)amino)naphthalene-1,4-dione]		did not show any inhibitory activity; also recorded: noninhibitory; also recorded: did not inhibit WalK	>128	no or a very weak antimicrobial activity	N.I.	
O=C(O)c1cc(NC2=C(Cl)C(=O)c3c(O)ccc(O)c3C2=O)ccc1O [2m, 5-((3-chloro-5,8-dihydroxy-1,4-dioxo-1,4-dihydronaphthalen-2-yl)amino)-2-hydroxybenzoic acid]	45	weaker	64	weaker		
O=C(O)c1cc(NC2=C(Cl)C(=O)c3c(cccc3[N+](=O)[O-])C2=O)ccc1O [2n, 5-((3-chloro-5-nitro-1,4-dioxo-1,4-dihydronaphthalen-2-yl)amino)-2-hydroxybenzoic acid]		did not show any inhibitory activity; also recorded: did not inhibit WalK	128	no or a very weak antimicrobial activity	N.I.	
O=C1c2onc(-c3ccccc3)c2C(=O)c2c(O)ccc(O)c21 [3a, 5,8-dihydroxy-3-phenylnaphtho[2,3-d]isoxazole-4,9-dione]	51		0.5	equal to waldiomycin or even stronger		
O=C1c2onc(-c3ccccc3)c2C(=O)c2cccc(O)c21 [3c, 8-hydroxy-3-phenylnaphtho[2,3-d]isoxazole-4,9-dione]		did not show any inhibitory activity		equal to waldiomycin or even stronger	N.I.	MIC (B. subtilis 168 strain; [3]): 0.5 µg/mL
